Assay: Determination of plasma exposure of test compounds in rats (LC/MS of plasma after oral dosing)
Format: in vivo, rat (male F-344)
Conditions: for AUC / Cmax / Tmax: male, F-344, rat, rats, oral administration of a 30 mg/kg dose; for AUC: n = 3, read-out: AUC (area under the curve); for Cmax: n = 3, read-out: Cmax (maximum concentration of test compound); for Tmax: n = 3, read-out: tmax (time at which maximum concentration resulted); for concentration at 0.5 h / concentration at 1 h / concentration at 2 h / concentration at 6 h: rat, male F-344 rats, 30 mg/kg oral by gavage, suspension, n = 3
Protocol: General Procedure for Determination of Plasma Exposure of Test Compounds in Rats
Each compound was administered as a suspension in a vehicle consisting of 5% ethanol, 95% of a mixture of 0.5% each Polysorbate 80/sodium carboxymethylcellulose in water. Three male F-344 rats were dosed orally at 30 mg/kg by gavage and blood collected by orbital venapuncture under isoflurane anesthesia at 0.5, 1, and 2 hours after dosing into sodium heparinized containers. The final 6 hour timepoint was collected by cardiac puncture into sodium heparinized containers. Plasma was collected after brief centrifugation and frozen at −70° C. until assay. Plasma samples were assayed by LC/MS using standards prepared by spiking plasma with the compound of interest.

Structure (SMILES): CC(C)S(=O)(=O)NC[C@H](C)c1ccc(NC(=O)c2cc(F)cc(F)c2)cc1 [Compound B, N-[4-((1R)-1-methyl-2-{[(methylethyl)sulfonyl]amino}ethyl)phenyl](3,5-difluorophenyl)carboxamide]
- AUC: 5596 ± 14 ng·h/mL
- Cmax: 1490 ng/mL
- Tmax: 30 min
- concentration at 0.5 h: 1491 ± 12 ng/mL
- concentration at 1 h: 1170 ± 134 ng/mL
- concentration at 2 h: 1040 ± 62 ng/mL
- concentration at 6 h: 693 ± 136 ng/mL

Structure (SMILES): CC(CNS(=O)(=O)C(C)C)c1ccc(NC(=O)c2ccc(F)cc2F)cc1 (centres unmarked) [Compound A, N-[4-(1-methyl-2-{[(methylethyl)sulfonyl]amino}ethyl)phenyl](2,4-difluorophenyl)carboxamide]
- AUC: 1440 ± 227 ng·h/mL
- Cmax: 473 ng/mL
- Tmax: 30 min
- concentration at 0.5 h: 473 ± 100 ng/mL
- concentration at 1 h: 333 ± 53 ng/mL
- concentration at 2 h: 329 ± 62 ng/mL
- concentration at 6 h: 67 ± 17 ng/mL

Reference: US6803484B2, “Sulfonamide derivatives” (Eli Lilly and Company, priority 2000, dated 2004)
